Holding throughout (assay type): cell-based
The test system of data set [1] is K562 chronic myelogenous leukemia cells. Put plainly: PBMC cytotoxicity assay against K562 cells (flow cytometry). On the procedure: (§1) In the present study, we examined these desmuramylpeptides in terms of potentiation of the cytotoxic activity of the PBMCs against cancer cells. To this end, we used a previously described flow-cytometry-based cytotoxicity assay where PBMCs are co-incubated with fluorescently labeled cancer cells.[89] As indicated above, the NOD2-mediated NK cell activity originates from both the direct effects of NOD2 agonists on NK cells and the indirect activation through cytokine release by other NOD2-responsive cells, including monocytes. Thus, we used the whole PBMC population as the effector cells, rather than isolated NK cells, to provide conditions that would be closer to the in vivo environment, wherein the immune responses can be reinforced by interactions between the distinct immune cell subpopulations. Two malignant cell lines were used as the target cells in a 40:1 effector to target cell ratio: MEC1 B-chronic lymphocytic leukemia cells, and K562 chronic myelogenous leukemia cells. The K562 cells are considered a “classic” NK cell target, as they lack the expression of major histocompatibility complex (MHC) class I that is required for NK cell inhibition.[90]
(§2) The PBMC cytotoxicity assays using K562 and MEC1 cells were performed as described previously, with some modifications.[89] PBMCs were seeded (4 × 10^5 cells/well) in 96-well plates and treated with compounds (0.1–10 μM) or vehicle (0.1% DMSO) for 18 h. The K562 or MEC1 cells were stained with CFSE (Invitrogen, Carlsbad, CA, U.S.A.), washed twice with complete medium, and added (1 × 10^4 cells/well) to pretreated PBMCs for a final effector cell to target tumor cell ratio of 40:1. After a 4 h co-incubation (37 °C, 5% CO2), cells were stained with Sytox blue dead cell stain (Invitrogen) and analyzed using an Attune NxT flow cytometer (Thermo Fisher Scientific, Waltham, MA, U.S.A.) and the FlowJo software (Tree Star, Inc., Ashland, OR, U.S.A.). Cells that were positive for both CFSE and Sytox blue were defined as dead K562 and MEC1 cells. PBMCs alone and the CFSE-labeled cancer cells alone were also treated with the compounds at the same concentrations and stained with Sytox blue to determine any direct cytotoxicity of the compounds toward the PBMCs and cancer cells. The experiments were run in duplicate and repeated as three independent biological replicates. Statistical significance was determined by one-way ANOVA followed with Dunnett’s multiple comparisons test.

The subject of data set [2] is MEC1 B-chronic lymphocytic leukemia cells. In words: PBMC cytotoxicity assay against MEC1 cells (flow cytometry). As to the method:
as §1
as §2, with “Cells that were positive for both CFSE and Sytox blue were defined as dead K562 and MEC1 cells. PBMCs alone and the CFSE-labeled cancer cells alone were also treated with the compounds at the same concentrations and stained with Sytox blue to determine any direct cytotoxicity of the compounds toward the PBMCs and cancer cells. The experiments were run in duplicate and repeated as three independent biological replicates.” left out

In another data set the target is T1, NOD2 (Homo sapiens, UniProt Q9HC29).
T1 construct: host or cells: HEK-Blue NOD2 cells (HEK293-derived)
T1 sequence (Q9HC29 whole entry): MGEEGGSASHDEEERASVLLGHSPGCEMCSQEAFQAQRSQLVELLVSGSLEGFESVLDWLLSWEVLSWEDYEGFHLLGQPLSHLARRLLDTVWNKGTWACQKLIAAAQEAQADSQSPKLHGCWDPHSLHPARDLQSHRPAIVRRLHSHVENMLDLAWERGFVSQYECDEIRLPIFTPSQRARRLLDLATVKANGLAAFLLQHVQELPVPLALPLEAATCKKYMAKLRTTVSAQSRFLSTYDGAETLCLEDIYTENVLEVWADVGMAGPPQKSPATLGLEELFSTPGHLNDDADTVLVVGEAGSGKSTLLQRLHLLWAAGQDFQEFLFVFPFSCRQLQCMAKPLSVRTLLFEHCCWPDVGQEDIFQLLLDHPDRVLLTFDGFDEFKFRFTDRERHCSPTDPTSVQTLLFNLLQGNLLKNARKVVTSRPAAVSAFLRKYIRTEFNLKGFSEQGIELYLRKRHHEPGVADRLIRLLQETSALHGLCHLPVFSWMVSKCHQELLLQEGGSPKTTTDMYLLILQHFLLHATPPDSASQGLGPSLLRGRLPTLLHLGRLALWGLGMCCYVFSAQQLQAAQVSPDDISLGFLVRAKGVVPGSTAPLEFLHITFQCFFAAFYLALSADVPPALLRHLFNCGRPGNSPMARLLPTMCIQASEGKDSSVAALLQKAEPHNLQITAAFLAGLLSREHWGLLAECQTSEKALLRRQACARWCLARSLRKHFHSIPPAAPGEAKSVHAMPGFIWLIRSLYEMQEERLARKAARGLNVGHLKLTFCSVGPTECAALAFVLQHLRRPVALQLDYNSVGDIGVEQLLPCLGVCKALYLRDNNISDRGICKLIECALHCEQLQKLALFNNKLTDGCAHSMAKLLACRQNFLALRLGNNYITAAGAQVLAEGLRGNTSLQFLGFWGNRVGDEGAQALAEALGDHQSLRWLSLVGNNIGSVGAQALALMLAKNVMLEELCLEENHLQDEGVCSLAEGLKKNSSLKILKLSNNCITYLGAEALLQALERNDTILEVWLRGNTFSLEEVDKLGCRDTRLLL
In words: HEK-Blue NOD2 cell line reporter assay (NF-κB-inducible SEAP). The conditions noted are these: for EC50 / NOD2 activity at 2 μM (fold increase): HEK-Blue NOD2 cells; for NOD2 activity at 2 μM (fold increase): NF-κB transcriptional (SEAP) activity relative to 0.1% DMSO.

Setting [3] is: 10 μM, 18 h pretreatment, 4 h co-incubation, 40:1.
Setting [4] is: 18 h, 7 or 8 concentrations 1 nM to 20 μM, mean ± SEM.

Consider `CCCCCCCCCCCCCCCCCC(=O)Oc1ccc(/C=C/C(=O)NCC(=O)N[C@H](C(=O)N[C@H](CCC(=O)OCC)C(=O)OCC)C(C)C)cc1OC` [Compound 75, Diethyl ((E)-3-(3-Methoxy-4-(stearoyloxy)phenyl)acryloyl)glycyl-L-valyl-D-glutamate], for which the “Boost to the cytotoxicity of PBMCs against K562 cells” value is “no effects were seen against either cell line” in data set [1] (100 nM), “still significant” in data set [1] (1 μM) and “significant boost” in data set [1] (setting [3]). In addition, the “Boost to the cytotoxicity of PBMCs against MEC1 cells” value in data set [2] (100 nM) was “no effects were seen against either cell line”; in data set [2] (setting [3]), “significant boost”. The EC50 on NOD2 amounted to 2.83 µM; on NOD2 (setting [4]), 2.83 ± 0.206 µM. The “NOD2 activity at 2 μM (fold increase)” value on NOD2 (18 h, mean ± SEM) came out at 2.37 ± 0.01 fold increase. Besides, the “Diminished activity by a factor, relative to 74” value at NOD2 (ratio of EC50 versus compound 74) was 90.

As for `CCCCCCCCCCCCCCCCCC(=O)Oc1ccc(/C=C/C(=O)NCC(=O)N[C@H](C(=O)N[C@H](CCC(=O)OCC)C(=O)OCC)[C@@H](C)O)cc1OC` [Compound 81, Diethyl ((E)-3-(3-Methoxy-4-(stearoyloxy)phenyl)acryloyl)glycyl-L-threonyl-D-glutamate], the “Boost to the cytotoxicity of PBMCs against K562 cells” value in data set [1] (setting [3]) was “devoid of activity”. The “Boost to the cytotoxicity of PBMCs against MEC1 cells” value in data set [2] (setting [3]) was “devoid of activity”. Also, the EC50 on NOD2 was found to be 1.45 µM; on NOD2 (setting [4]), 1.45 ± 0.15 µM. Also, the “NOD2 activity at 2 μM (fold increase)” value on NOD2 (18 h, mean ± SEM) is 1.96 ± 0.01 fold increase. Further, the “Improvement in potency over 32” value on NOD2 (ratio of EC50 versus compound 32) is 10 fold.

Values taken from article PMC8279416, “Structural Fine-Tuning of Desmuramylpeptide NOD2 Agonists Defines Their In Vivo Adjuvant Activity” (Journal of Medicinal Chemistry, 2021).
